From patent US20220324911A1, “THERAPEUTIC PEPTIDES” (COHBAR, INC., priority 2019, published 2022)
Non-standard residues stand in square brackets, D forms with d. No end group written: not given here.

Legend:
[1] = test system: 3T3-L1 adipocytes; assay: Free Fatty Acid Levels in 3T3-L1 Adipocytes; assay type: cell-based, mouse; conditions: for Free Fatty Acid Levels Expressed as a Percent Isoproterenol Control, Percent of Control Value: peptides at 25 μM, 20-22 hours then isoproterenol (1 nM) 3 hours
Experimental: Following 12-15 days' differentiation, test peptides were added to a final concentration of 25 μM and incubated for 20-22 hours in Adipocyte Maintenance Medium. After 20-22 hours, isoproterenol (1 nM) was added to all wells except untreated controls and test peptides were replenished. Cells were incubated for a further 3 hours in Assay Buffer (Zen-Bio). Free fatty acid concentrations in the media were determined using a Free Fatty Acid Assay Kit (Zen-Bio) according to the manufacturer's instructions using a plate reader (540 nm). Absorbance values were corrected for untreated background and expressed relative to isoproterenol treated cells. Treatment with isoproterenol (1 nM) alone was used as the free fatty acid level stimulatory control. The relative standard deviation of the isoproterenol control was <10%. […] Free fatty acid levels for insulin (100 nM) treatment were <5% of the isoproterenol control value.

[2] = test system: MCF-7 cells; conditions: human, 72 h, 10 µM
Experimental: Peptides and reference compound staurosporine (Selleckchem) were dissolved with DMSO at 10 mM stock. CellTiter 96® AQueous One Solution Reagent (MTS assay reagent) was purchased from Promega (Madison, Wis.). MCF-7 human breast cancer cell line was purchased from American Type Culture Collection (Manassas, Va.). MCF-7 cells were grown in EMEM Medium supplemented with 10% FBS and 0.01 mg/ml human recombinant insulin. 100 μg/ml penicillin and 100 μg/ml streptomycin were added to the culture medium. Cells were incubated with test peptides at 10 μM at 37° C. in a humidified atmosphere of 5% C02 and 95% air for 72 hours. 5 μl of CellTiter 96® AQueous One Solution Reagent (MTS assay reagent) was added to each well and incubated at 37° C., 5% C02 for 5 hours. Absorbance at 492 nm was recorded by Envision 2104 Multilabel Reader. Treatment with DMSO alone was used as the cell viability activity control.

[3] = test system: MDA-MB-231 cells; assay: Caspase 3/7 Activity in MDA-MB-231 Cells (Caspase-Glo 3/7); assay type: cell-based, human; conditions: peptides at 10 μM, 18 hours, relative to DMSO control
Experimental: The effect of the peptides on cell death/survival can be assessed using a caspase-3 assay. Peptides were dissolved with DMSO at 10 mM stock. […] Staurosporine (Selleckchem) was dissolved with DMSO at 1 mM stock. Caspase-Glo 3/7 Assay Reagent was purchased from Promega (Madison, Wis.). MDA-MB-231 human breast cancer cell line was purchased from American Type Culture Collection (Manassas, Va.). MDA-MB-231 cells were grown in DMEM Medium supplemented with 10% FBS. 100 μg/ml penicillin and 100 μg/ml streptomycin were added to the culture medium. Cultures were maintained at 37° C. in a humidified atmosphere of 5% C02 and 95% air. MDA-MB-231 cells were incubated with test peptides in duplicate at 10 μM at 37° C. in a humidified atmosphere of 5% C02 and 95% air for 18 hours. 25 μl of Caspase-Glo 3/7 Assay Reagent was added to each well and incubated at 37° C., 5% C02 for 1 hour. Luminescence for each sample well on the plate was measured by Envision 2104 Multilabel Reader (PerkinElmer, Santa Clara, Calif.). Activity was calculated relative to DMSO control.

[4] = test system: MDA-MB-231 cells; assay: MTS Assay in MDA-MB-231 Cells (cell viability); assay type: cell-based; conditions: human, 72 h
Experimental: Test compounds and reference compound staurosporine (Selleckchem) were all dissolved with DMSO at 10 mM stock. […] Activity was calculated relative to DMSO control. […] Cell viability was 3% of the DMSO control value for Staurosporine (10 uM).

| Substance | Free Fatty Acid Levels Expressed as a Percent Isoproterenol Control, Percent of Control Value [1] | other results |
| --- | --- | --- |
| 3 (SLLIQCQSGHLR) [compound 3] | 136% | – |
| 4 (LLIQCQSGHLR) [compound 4] | 141% | – |
| 5 ([dA]LIQCQSGHLR) [compound 5] | 159% | – |
| 8 (TCWLIVDIGLLIVSSVF) [compound 8] | 129% | – |
| 9 ([dA]TCWLIVDIGLLIVSSVF) [compound 9] | 125% | – |
| 10 ([dA]TCWLIVDIGLLIVSS[dA]F) [compound 10] | 138% | – |
| 13 (TGWARGLISTGRV) [compound 13] | 87% | – |
| 14 (TGWARGLISTGR; not fully specified) [compound 14] | 102% | – |
| 15 (TGW[dA]RGLISTGR) [compound 15] | 102% | – |
| 18 (QTVPNKPTGPKLPNLH) [compound 18] | 109% | – |
| 19 (QTVPNKPT[dA]PKLPNLH) [compound 19] | 89% | – |
| 20 (QTVPNKPT[dA]PKLPN[dA]) [compound 20] | 108% | – |
| MQTVPNKPTGPKLPNLH [compound 17] | 112% | MTS Assay cell viability, Percent of Control Activity [2]: 68%; Caspase 3/7 Activity, Percent of Control Activity [3]: 65%; MTS Assay cell viability, Percent of Control Activity [4]: 85% |
| MSLLIQCQSGHLR [compound 2] | 162% | MTS Assay cell viability, Percent of Control Activity [2]: 59%; Caspase 3/7 Activity, Percent of Control Activity [3]: 92%; MTS Assay cell viability, Percent of Control Activity [4]: 90% |
| MTCWLIVDIGLLIVSSVF [compound 7] | 160% | MTS Assay cell viability, Percent of Control Activity [2]: 52%; Caspase 3/7 Activity, Percent of Control Activity [3]: 56%; MTS Assay cell viability, Percent of Control Activity [4]: 88% |
| MTGWARGLISTGRV [compound 12] | 107% | MTS Assay cell viability, Percent of Control Activity [2]: 62%; Caspase 3/7 Activity, Percent of Control Activity [3]: 73%; MTS Assay cell viability, Percent of Control Activity [4]: 89% |
| insulin [reference compound] | – | Free fatty acid levels, % of the isoproterenol control value ([1]; insulin 100 nM): < 5% |
